Source: patent US20220079931A1, “ESTROGEN RECEPTOR PROTEIN DEGRADERS” (THE REGENTS OF THE UNIVERSITY OF MICHIGAN, priority 2019, published 2022)

Tests used:
[1] = target: T1, ERα (Homo sapiens, UniProt P03372); assay: ER degradation by Western blotting in MCF-7 cells; assay type: cell-based; parameters: host or cells: MCF-7
T1 sequence (P03372 1-595): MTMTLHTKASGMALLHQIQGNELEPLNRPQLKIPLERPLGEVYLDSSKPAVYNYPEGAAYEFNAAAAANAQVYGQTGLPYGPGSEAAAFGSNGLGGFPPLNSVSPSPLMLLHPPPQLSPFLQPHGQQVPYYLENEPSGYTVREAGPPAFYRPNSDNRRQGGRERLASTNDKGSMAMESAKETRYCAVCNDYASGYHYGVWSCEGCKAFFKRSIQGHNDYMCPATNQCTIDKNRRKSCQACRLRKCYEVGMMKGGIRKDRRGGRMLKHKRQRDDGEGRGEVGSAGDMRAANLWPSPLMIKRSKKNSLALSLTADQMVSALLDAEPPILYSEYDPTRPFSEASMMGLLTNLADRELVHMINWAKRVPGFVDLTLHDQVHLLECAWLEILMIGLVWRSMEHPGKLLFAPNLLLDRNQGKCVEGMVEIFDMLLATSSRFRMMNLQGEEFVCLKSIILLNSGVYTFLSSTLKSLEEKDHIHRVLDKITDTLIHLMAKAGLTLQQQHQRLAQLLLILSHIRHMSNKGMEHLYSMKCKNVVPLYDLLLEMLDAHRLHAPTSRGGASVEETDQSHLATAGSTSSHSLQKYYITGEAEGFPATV
Description: FIG. 1 is an image showing the Western blotting analysis of ER protein in MCF-7 cells treated with Compounds of the Disclosure and control compounds. Cells were treated with different compounds for 4 h and whole cell lysates were then analyzed by Western blotting to examine the level of ER protein. GADPH protein was used for the loading control. The numbers below the panel represent the ERα/GADPH ratio normalized with the DMSO control at 100.
FIG. 2 is an image showing the Western blotting analysis of ER protein in the MCF-7 cells treated with indicated compounds at 1 nM, 10 nM and 100 nM. MCF-7 cells were treated with different compounds for 4 h and whole cell lysates were analyzed by Western blotting to examine the level of ER protein. GADPH protein was used for the loading control. The numbers below the panel represent the ERα/GADPH ratio normalized with the DMSO control at 100.
FIG. 7 is an image showing the ERα degradation dose-response Western blotting for compound 32 at 4 h in MCF-7 cells.
FIG. 9 is an image showing the time course of ERα degradation by Western blotting by compound 32 (30 nM) and fulvestrant (30 nM) in the MCF-7 cells.
(§1) Cell Culture. Human breast cancer cell lines MCF-7 (ATCC® HTB-22™) and T47D (ATCC® HTB-133™) were purchased from the American Type Culture Collection (ATCC), Manassas, Va., and maintained and cultured in Dulbecco's Modified Eagle's medium (DMEM) containing 10% fetal bovine serum, 1 unit/ml of penicillin and 1 μg/ml of streptomycin. Cells with 3-8 passages after purchase were used in experiments as indicated.
Western Blot Analysis. Western blot analysis was performed essentially as described previously (Hu et al, 2015, PMID: 26358219). Cells treated with indicated compounds were lysed in Radioimmunoprecipitation Assay Protein Lysis and Extraction Buffer (25 mmol/L Tris.HCl, pH 7.6, 150 mmol/L NaCl, 1% Nonidet P-40, 1% sodium deoxycholate, and 0.1% sodium dodecyl sulfate) containing proteinase inhibitor cocktail (Roche Diagnostics, Mannheim, Germany). After determination of protein concentration by BCA assay (Fisher Scientific, Pittsburgh, Pa.), equal amounts of total protein were electrophoresed through 10% SDS-polyacrylamide gels. The separated protein bands were transferred onto PVDF membranes (GE Healthcare Life Sciences, Marlborough, Mass.) and blotted against different antibodies, as indicated. The human estrogen receptor a antibodies (AB16460) were purchased from Abeam, Inc., Cambridge, Mass. The membranes were reblotted with horseradish peroxidase-conjugated anti-glyceraldehyde-3-phosphate dehydrogenase antibody (G9295) from Sigma-Aldrich Corporation, St. Louis, Mo. The blots were scanned and the band intensities were quantified using GelQuant.NET software as described in biochemlabsolutions.com. The relative mean intensity of target proteins was expressed after normalization to the intensity of glyceraldehyde-3-phosphate dehydrogenase bands from individual repeats.

[2] = system: mRNA levels of pGR and GREB1; assay: qRT-PCR of ER-regulated genes in MCF-7 cells
[3] = system: MCF-7 cells; assay: WST-8 cell proliferation assay in MCF-7 cells; assay type: cell-based, human
Description: as §1
(§2) Cell Growth Assay. Cells were seeded at 1500/well in 96 well plates overnight. One day after seeding, they were treated with indicated doses of compounds. The growth of the cells was evaluated by colorimetric WST-8 assay 4 days after the compound treatment following the instructions of the manufacturer, Cayman Chemical, Ann Arbor, Mich.
(§3) Fulvestrant achieves an Imax value of 43.8%. […] RAD1901, a previously reported SERD molecule^18, achieves an Imax value of 25.7%.

[4] = system: primary human mammary epithelial cells; assay: Cell proliferation in primary human mammary epithelial cells; assay type: cell-based
Description: as §2, §3

## CCN(CCCCCOCC(=O)N[C@H](C(=O)N1C[C@H](O)C[C@H]1C(=O)N[C@@H](C)c1ccc(-c2scnc2C)cc1)C(C)(C)C)CCOc1ccc(C(=O)c2c(-c3ccc(O)cc3)sc3cc(O)ccc23)cc1 [compound 32, (2S,4R)-1-((S)-2-(2-((5-(Ethyl(2-(4-(6-hydroxy-2-(4-hydroxyphenyl)benzo[b]thiophene-3-carbonyl)phenoxy)ethyl)amino)pentyl)oxy)acetamido)-3,3-dimethylbutanoyl)-4-hydroxy-N—((S)-1-(4-(4-methylthiazol-5-yl)phenyl)ethyl)pyrrolidine-2-carboxamide]
[1]; 30 nM, 1 h treatment
  reduction of ER protein level at 1 h: > 80%
[1]; 30 nM, 3 h
  ER degradation at the 3 h time-point: essentially complete ER degradation
[1]; 4 h treatment, read-out: DC50 (concentration to achieve 50% of protein degradation)
  DC50: 0.17 nM
[1]; at concentrations as low as 5 nM
  maximum ER degradation: > 95%
[2]; 10 nM and 100 nM
  suppression of pGR and GREB1 expression compared with fulvestrant: slightly more effective than fulvestrant
  suppression of pGR and GREB1 expression compared with raloxifene: significantly more effective than raloxifene
[2]; qRT-PCR
  suppression of expression of pGR and GREB1: strongly suppressed
[3]; Homo sapiens, MCF7, 96 h, read-out: IC50, inhibition of cell proliferation
  IC50: 0.77 nM
[3]; MCF-7 cells, WST-8, 4 days
  maximum inhibition (Imax): 57.5%
[4]
  cell proliferation inhibition: does not exhibit the cell proliferation inhibition effects
